Measurements: PubChem BioAssay (NCI)
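The compound was tested at five concentrations on cells cultured in 96-well plates, with a 48-hour exposure period. At the GI50, growth is halved. TGI marks complete inhibition of growth.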

What was measured:
Test in all cases: NCI tumour cell line growth inhibition, 48 h
DU-145 prostate = tested on: DU-145 prostate
HOP-62 NSCLC = tested on: HOP-62 NSCLC
SW-620 colon = tested on: SW-620 colon
SNB-19 CNS = tested on: SNB-19 CNS
SK-MEL-28 melanoma = tested on: SK-MEL-28 melanoma
NCI-H460 lung = tested on: NCI-H460 lung
OVCAR-3 ovarian = tested on: OVCAR-3 ovarian
CCRF-CEM leukemia = tested on: CCRF-CEM leukemia
NCI-H23 lung = tested on: NCI-H23 lung
SNB-75 CNS = tested on: SNB-75 CNS

| SMILES | GI50 (DU-145 prostate) [µM] | TGI (DU-145 prostate) [µM] | GI50 (HOP-62 NSCLC) [µM] | TGI (HOP-62 NSCLC) [µM] | GI50 (SW-620 colon) [µM] | TGI (SW-620 colon) [µM] | GI50 (SNB-19 CNS) [µM] | TGI (SNB-19 CNS) [µM] | GI50 (SK-MEL-28 melanoma) [µM] | TGI (SK-MEL-28 melanoma) [µM] | GI50 (NCI-H460 lung) [µM] | TGI (NCI-H460 lung) [µM] | GI50 (OVCAR-3 ovarian) [µM] | TGI (OVCAR-3 ovarian) [µM] | GI50 (CCRF-CEM leukemia) [µM] | TGI (CCRF-CEM leukemia) [µM] | GI50 (NCI-H23 lung) [µM] | TGI (NCI-H23 lung) [µM] | GI50 (SNB-75 CNS) [µM] | TGI (SNB-75 CNS) [µM] |
| --- | --- | --- | --- | --- | --- | --- | --- | --- | --- | --- | --- | --- | --- | --- | --- | --- | --- | --- | --- | --- |
| Cc1ccc(-c2cc(C(Cl)Cl)on2)cc1 | 91.4 | > 100 | 95.5 | > 100 | 67.5 | > 100 | > 100 | > 100 | > 100 | > 100 | 49.1 | > 100 | 51.8 | > 100 | 40.9 | > 100 | 55.3 | > 100 | – | – |
| CCCCCCCCCCCCCCCCCCNC(=O)[C@H]1CSC(c2ccc(F)c(OC)c2)N1 (stereo partly drawn) | 1.79 | > 50 | 0.843 | 1.6 | 0.5 | 1.54 | 0.996 | 1.96 | 0.647 | 1.33 | 0.211 | 0.824 | – | – | 0.284 | 1.74 | 1.42 | 5.05 | 0.87 | 1.63 |
| CCCC/C=C1\CCC(CN2CCCC2)C1=O (stereo not drawn) | – | – | – | 33.3 | – | 4.9 | – | 48.9 | – | 29.1 | – | 38.2 | – | 31.5 | – | 25 | – | 32.1 | – | 32.4 |
| O=C(O)C(O)c1ccc(F)cc1 (stereo not drawn) | – | > 100 | – | > 100 | – | > 100 | – | > 100 | – | > 100 | – | > 100 | – | > 100 | – | – | – | > 100 | – | > 100 |
| Cc1cc(S(N)(=O)=O)c(S/C(=N\NS(=O)(=O)c2ccccc2)c2ccc(Cl)c(Cl)c2)cc1Cl | 54.2 | > 100 | 63.5 | > 100 | 37.3 | > 100 | 78.8 | > 100 | 84.1 | > 100 | 29.5 | > 100 | 25.8 | 72.7 | 86 | > 100 | 20.3 | 49.9 | – | – |
| CN1C=C(C(N)=O)C2CC(O)[C@@](NC(=O)CS(N)(=O)=O)(C(=O)O)C2C1 (stereo partly drawn) | – | – | – | 4.27 | – | > 91.5 | – | 19.3 | – | 7.32 | – | 12.6 | – | 42.6 | – | > 100 | – | 3.48 | – | 7.6 |
| c1cc2ccc1C1NCCCN1CCN1CCCNC1c1ccc(cc1)C1NCCCN1CCN1CCCNC21 (stereo not drawn) | – | – | – | > 100 | – | 48.5 | – | > 100 | – | > 100 | – | > 100 | – | > 100 | – | > 100 | – | > 100 | – | > 100 |
| Cc1ccc(S(=O)c2ccc([N+](=O)[O-])c3nonc23)cc1 (stereo not drawn) | 7.87 | 20.9 | 16.2 | 30.8 | 2.18 | 5 | 14.7 | 33.9 | 9.15 | 23.3 | 17.7 | 38.6 | 2.23 | 4.78 | 2.3 | 6.27 | 14.1 | 30.4 | – | – |
| C/C(=N\O)[C@H]1CC[C@@]2(C)[C@@H]3CC[C@H]4C(C)(C)/C(=N/O)CC[C@@]45CC35CC[C@]12C (stereo partly drawn) | 2.85 | 6.2 | 4.3 | > 16.7 | 8.68 | > 16.7 | 8.21 | > 16.7 | 4.34 | 14.2 | 5.05 | > 16.7 | – | – | – | – | 4.96 | > 16.7 | 7.46 | 14.8 |
| OCCN(CCO)c1ncnc2c1sc(=S)n2-c1ccccc1 | – | – | – | > 100 | – | > 100 | – | > 100 | – | > 100 | – | > 100 | – | > 100 | – | > 100 | – | > 100 | – | > 100 |
| CC(C)(C)c1cc(C(=O)O)c(C(c2ccccc2)c2ccccc2C(=O)O)c(C(=O)O)c1 (stereo not drawn) | – | – | – | > 100 | – | > 100 | – | > 100 | – | > 100 | – | > 100 | – | > 100 | – | > 100 | – | > 100 | – | 42.2 |
| C=C1c2ccccc2N(S(=O)(=O)c2ccc(C)cc2)C12CCCCC2 | – | – | – | > 100 | – | > 100 | – | > 100 | – | > 100 | – | > 100 | – | > 100 | – | > 100 | – | > 100 | – | > 100 |
| NC(=O)c1ncn(C2OC(CO)C(O)C2O)c1NC(=S)NC(=O)c1ccccc1 (stereo not drawn) | – | – | – | > 100 | – | > 100 | – | > 100 | – | > 100 | – | > 100 | – | > 100 | – | > 100 | – | > 100 | – | > 100 |
| C1=CC=C2NCCSCCNC3=CC=CC=CC3=NCCSCCN=C2C=C1 | – | – | – | > 100 | – | > 100 | – | > 100 | – | > 100 | – | > 100 | – | > 100 | – | > 100 | – | > 100 | – | > 100 |
| CCOC(=O)c1cc(C(=O)O)c(=O)n2c1[nH]c1ccccc12 | – | – | – | > 100 | – | > 100 | – | > 100 | – | > 100 | – | > 100 | – | > 100 | – | > 100 | – | > 100 | – | > 100 |
